Source: the NIST ThermoML archive (doi:10.1021/acs.jced.8b01174)
Numbers after ± are expanded uncertainties.

Assays:
[1] = wn = mass fraction of the nth substance listed; settings: 97.7 kPa, Liquid, w2 = 0.874; for viscosity: Concentric cylinders viscometry; for mass density: Vibrating tube method
[2] = 97.7 kPa, Liquid; for viscosity: Concentric cylinders viscometry; for mass density: Vibrating tube method
[3] = molar heat capacity at constant pressure; settings: 100 kPa, Liquid, DSC

C1CNCCN1 [piperazine] + CN(CCO)CCO
viscosity ([1]; 293.15 K): 150.46 ± 4.3 mPa·s | mass density ([1]; 293.15 K): 1036 ± 3 kg/m3 | viscosity ([1]; 303.15 K): 79.46 ± 2.3 mPa·s | mass density ([1]; 303.15 K): 1029 ± 3 kg/m3 | viscosity ([1]; 313.15 K): 45.07 ± 1.3 mPa·s | mass density ([1]; 313.15 K): 1021 ± 3 kg/m3 | viscosity ([1]; 323.15 K): 27.24 ± 0.81 mPa·s | mass density ([1]; 323.15 K): 1014 ± 3 kg/m3 | viscosity ([1]; 333.15 K): 17.41 ± 0.54 mPa·s | mass density ([1]; 333.15 K): 1006 ± 3 kg/m3 | viscosity ([1]; 343.15 K): 11.68 ± 0.4 mPa·s | mass density ([1]; 343.15 K): 999 ± 3 kg/m3 | viscosity ([1]; 353.15 K): 8.18 ± 0.27 mPa·s | mass density ([1]; 353.15 K): 991 ± 3 kg/m3 | viscosity ([1]; 363.15 K): 5.93 ± 0.2 mPa·s | mass density ([1]; 363.15 K): 983 ± 3 kg/m3

O [water]
viscosity ([2]; 293.15 K): 1 ± 0.02 mPa·s | mass density ([2]; 293.15 K): 998 ± 2 kg/m3 | viscosity ([2]; 303.15 K): 0.8 ± 0.02 mPa·s | mass density ([2]; 303.15 K): 996 ± 2 kg/m3 | viscosity ([2]; 313.15 K): 0.65 ± 0.02 mPa·s | mass density ([2]; 313.15 K): 992 ± 2 kg/m3 | viscosity ([2]; 323.15 K): 0.55 ± 0.02 mPa·s | mass density ([2]; 323.15 K): 988 ± 2 kg/m3 | viscosity ([2]; 333.15 K): 0.47 ± 0.02 mPa·s | mass density ([2]; 333.15 K): 983 ± 2 kg/m3 | viscosity ([2]; 343.15 K): 0.4 ± 0.02 mPa·s | mass density ([2]; 343.15 K): 978 ± 2 kg/m3 | viscosity ([2]; 353.15 K): 0.35 ± 0.02 mPa·s | mass density ([2]; 353.15 K): 972 ± 2 kg/m3 | viscosity ([2]; 363.15 K): 0.31 ± 0.02 mPa·s | mass density ([2]; 363.15 K): 965 ± 2 kg/m3 | molar heat capacity at constant pressure ([3]; 298.15 K): 74.8 ± 3.5 J/K/mol | molar heat capacity at constant pressure ([3]; 308.15 K): 74.78 ± 3.5 J/K/mol | molar heat capacity at constant pressure ([3]; 318.15 K): 74.93 ± 3.5 J/K/mol | molar heat capacity at constant pressure ([3]; 328.15 K): 75.02 ± 3.5 J/K/mol | molar heat capacity at constant pressure ([3]; 338.15 K): 75.07 ± 3.5 J/K/mol | molar heat capacity at constant pressure ([3]; 348.15 K): 75.21 ± 3.6 J/K/mol
